Test results as given in patent US9464064B2, “HCV helicase inhibitors and methods of use thereof” (University of Kansas, priority 2011, dated 2016).

Molecular target: T1, HCV NS3 helicase NS3h_1b(con1) (Hepatitis C virus genotype 1b, UniProt Q9WMX2)
T1 construct: truncated C-terminally His-tagged NS3 proteins lacking the N-terminal protease, called NS3h; His-tag (C); made in house
Test: MBHA screen of NCI mechanistic set library at 20 μM (percent inhibition, compound interference)
Format: biochemical
Conditions: compounds at 20 μM; for Inh. (%) (Inhibition): calculated from Equation 1
How it was run: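 Molecular beacon-based DNA unwinding assay; compounds screened at 20 μM in triplicate, with DMSO-only negative and 500 nM dT20 positive controls. Fluorescence (ex 643/em 670 nm) was read before and 30 min after adding ATP to 1 mM. Percent inhibition came from the change relative to DMSO controls; interference from pre-ATP fluorescence versus DMSO controls.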

[1] = MBHA with DNA substrate, assay interference calculated with Equation 2
[2] = assay interference calculated with Equation 2 (fluorescence vs DMSO-only controls before ATP)

T1 sequence (Q9WMX2 1192-1657): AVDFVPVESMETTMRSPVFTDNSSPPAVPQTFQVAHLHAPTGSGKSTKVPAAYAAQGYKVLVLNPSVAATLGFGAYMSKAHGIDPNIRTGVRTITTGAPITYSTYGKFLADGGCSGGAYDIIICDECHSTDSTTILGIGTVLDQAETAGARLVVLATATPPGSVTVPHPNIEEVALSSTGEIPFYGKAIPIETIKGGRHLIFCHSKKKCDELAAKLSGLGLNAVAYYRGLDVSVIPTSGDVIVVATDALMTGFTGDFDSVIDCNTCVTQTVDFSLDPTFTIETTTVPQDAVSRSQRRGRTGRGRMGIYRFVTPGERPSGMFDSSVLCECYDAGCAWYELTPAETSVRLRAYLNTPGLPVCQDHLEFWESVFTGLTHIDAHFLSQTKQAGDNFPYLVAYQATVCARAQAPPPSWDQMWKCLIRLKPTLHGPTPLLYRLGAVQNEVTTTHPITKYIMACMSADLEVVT

| Int.* (Ratio) (Interference) [1] | Inh. (%) (Inhibition) (MBHA with DNA substrate) | Inh. (%) (Inhibition) (MBHA with a DNA substrate) | Int.* (Ratio) (Interference) [2] | Compound |
| --- | --- | --- | --- | --- |
| 0.59 Ratio | 84.4% | – | – | COC(=O)C1c2cc3c(c(O)c2C(OC2OC(C)C(OC)C(C)(OC)C2OC)CC1(C)O)C(=O)c1c(O)cc2c(c1C3=O)OC1OC2(C)C(O)C(N(C)C)C1O (centres unmarked) [Compound 70845] |
| 0.87 Ratio | 18.3% | – | – | OCCNCCN1CCN(CCCN2c3ccccc3Sc3ccc(C(F)(F)F)cc32)CC1 [Compound 169676] |
| 1.06 Ratio | −14.6% | – | – | O=[N+]([O-])c1ccc2c(c1)/C(=N/N=C1c3ccccc3Cc3ccccc31)c1cc([N+](=O)[O-])cc([N+](=O)[O-])c1-2 [Compound 658139] |
| – | – | 6.8% | 0.90 Ratio | NC(=S)N/N=C/c1ccc(OC(=O)COc2ccccc2Cl)cn1 [Compound 185056] |
| 0.89 Ratio | −0.8% | – | – | CCOC(=O)/C=C/c1c(C)[nH]c(=O)[nH]c1=O [Compound 159935] |
| – | – | −29.0% | 1.00 Ratio | COc1ccc(/C=C2\CCCc3ccccc3C2=O)cc1 [Compound 687667] |
| – | – | −7.0% | 0.88 Ratio | Oc1cc(-n2cccn2)c(O)cc1-n1cccn1 [Compound 645987] |
| 1.11 Ratio | −9.3% | – | – | CC1(c2cccc3ccccc23)OC(=O)c2ccccc21 (centres unmarked) [Compound 97703] |
| 1.08 Ratio | −11.4% | – | – | CCOc1cccc(/C=N/N=C2\C(=O)Nc3c(Cl)cc(Cl)cc32)c1O [Compound 329277] |
| – | – | −45.1% | 1.17 Ratio | CCOC(=O)c1ccc(N=Cc2ccc(N(CCC#N)CCC#N)cc2)cc1 [Compound 620279] |
| 0.87 Ratio | −13.8% | – | – | CC1C(Oc2c(-c3ccc(O)c(O)c3)oc3c(O)cc(O)cc3c2=O)OC(O)C(O)C1O (centres unmarked) [Compound 167410] |
| 0.92 Ratio | −16.2% | – | – | CCC(C#N)(c1ccccc1)N(CCc1ccccc1)C(=O)c1ccccc1 (centres unmarked) [Compound 681741] |
| – | – | −5.5% | 0.85 Ratio | O=C(Nc1ccc(Sc2ccc(N=Nc3c(O)c(S(=O)(=O)O)cc4cc(S(=O)(=O)O)ccc34)cc2)cc1)c1ccc(N=Nc2c(O)ccc3c(S(=O)(=O)O)cc(S(=O)(=O)O)cc23)cc1 [Compound 76027] |
| – | – | −3.8% | 0.89 Ratio | CCCCCCCCCCCCCCCCCCN(C)C(COC)COP(=O)([O-])OCC[N+](C)(C)C (centres unmarked) [Compound 643826] |
| – | – | −25.4% | 1.00 Ratio | Cc1cc(O)c(/C=N/C(N)=S)c(=O)o1 [Compound 657449] |
| 0.95 Ratio | 5.1% | – | – | C=C1C(=O)OC2/C=C(/CO)[C@@H](OC(C)=O)C[C@H](O)/C(C)=C\[C@@H](OC(=O)[C@@H](C)CC)[C@@H]12 (some centres unmarked) [Compound 292663] |
| 1.07 Ratio | −14.0% | – | – | Br.COC1CN(C)C(=Nc2cccc3ccccc23)S1 (centres unmarked) [Compound 135996] |

| Int.* (Ratio) (Interference) [1] | Inh. (%) (Inhibition) (MBHA with DNA substrate) | Inh. (%) (Inhibition) (MBHA with a DNA substrate) | Int.* (Ratio) (Interference) [2] | Compound |
| --- | --- | --- | --- | --- |
| – | – | −21.5% | 1.00 Ratio | COc1ccccc1/C=C1\Sc2scc(-c3cccc([N+](=O)[O-])c3)[n+]2C1=O [Compound 657446] |
| 0.90 Ratio | 15.0% | – | – | COc1cc(/C=C/C(=O)CC(=O)/C=C/c2ccc(O)c(OC)c2)ccc1O [Compound 32982] |
| 0.88 Ratio | 16.2% | – | – | COc1cc2c(cc1Oc1ccc(OC)c3c1CC1c4c(cc(OC)c(OC)c4-3)CCN1C)CC1c3c(cc(OC)c(OC)c3-2)CCN1C (centres unmarked) [Compound 274893] |
| 0.98 Ratio | −11.6% | – | – | Cl.Cl.Nc1ccc(OCCCc2c(-c3ccccc3)nc(N)[nH]c2=O)cc1 [Compound 100856] |
| 0.96 Ratio | 15.7% | – | – | CCN(CCO)CCNc1ccc(C)c2sc3ccccc3c(=O)c12 [Compound 20534] |
| – | – | −28.4% | 1.11 Ratio | CCCCCC/C=C\CCCCCCCCCc1cccc(OC)c1O [Compound 617540] |
| 1.05 Ratio | −11.2% | – | – | O=C(c1nc2ccc(Cl)cc2[nH]c1=O)C(O)c1ccc2c(c1)OCO2 (centres unmarked) [Compound 642649] |
| 0.92 Ratio | −13.1% | – | – | Cc1ccc2[c](c1)[Sn]([c]1ccccc1)([c]1ccccc1)[c]1cc(C)ccc1N2C [Compound 118030] |
| 1.05 Ratio | 25.5% | – | – | CN1CCN(CCSC2Cc3cc(Cl)ccc3Sc3ccccc32)CC1 (centres unmarked) [Compound 635366] |
| – | – | −5.0% | 0.91 Ratio | CCOC(=O)NC(Nc1ccc(F)cc1)(C(=O)OCC)C(F)(F)F (centres unmarked) [Compound 684845] |
| 1.08 Ratio | −12.0% | – | – | CN(CO)c1nc(N(C)CO)nc(N(C)CO)n1 [Compound 283162] |
| – | – | −4.3% | 0.80 Ratio | CC(C)=CCC1=C(O)c2ccccc2C(=O)C1=O [Compound 11905] |
| 0.82 Ratio | −10.3% | – | – | O=[N+]([O-])c1cccc2nc3ccccc3c(NCCCNc3c4ccccc4nc4cccc([N+](=O)[O-])c34)c12 [Compound 690634] |
| – | – | −5.0% | 0.96 Ratio | O=C1NC(c2cccc3ccccc23)Nc2ccc(Cl)cc21 (centres unmarked) [Compound 175636] |
| – | – | −39.7% | 0.92 Ratio | Cc1ccccc1NC(=O)C(=O)C(C(=O)c1ccccc1F)C1OC(=O)c2ccccc21 (centres unmarked) [Compound 641228] |
| 1.00 Ratio | −9.5% | – | – | COc1ccc(C(=O)/C(Br)=C\C(=O)O)cc1 [Compound 104801] |
| – | – | −4.1% | 0.71 Ratio | CO[C@@H]1C[C@](C)(O)Cc2cc3c(c(O)c21)C(=O)c1c(O)cc2c(c1C3=O)O[C@@H]1O[C@@]2(C)[C@H](O)[C@@H](N(C)C)[C@@H]1O [Compound 269148] |

| Compound | Int.* (Ratio) (Interference) [1] | Inh. (%) (Inhibition) (MBHA with DNA substrate) | Inh. (%) (Inhibition) (MBHA with a DNA substrate) | Int.* (Ratio) (Interference) [2] |
| --- | --- | --- | --- | --- |
| COc1ccc(NC2=NCCO2)c2c1CCCC2 [Compound 663996] | 1.08 Ratio | −2.7% | – | – |
| S=C=NCc1ccccc1 [Compound 118976] | 0.96 Ratio | 13.9% | – | – |
| CCC[CH2][Sn]1([CH2]CCC)[S]CC[N]1S(=O)(=O)c1ccc(C)cc1 [Compound 183359] | 0.83 Ratio | 13.3% | – | – |
| O=C1NC(=S)NC(=O)C1C(=O)Nc1ccccc1 [Compound 336628] | 0.90 Ratio | 17.4% | – | – |
| O=C1OC(c2ccccc2)=N/C1=C\c1ccc(N(CCCl)CCCl)cc1 [Compound 104117] | 1.06 Ratio | −14.5% | – | – |
| CCCNC1=C(C)C(=O)C2=C(C1=O)[C@H](COC(N)=O)[C@]1(OC)[C@@H]3N[C@@H]3CN21 [Compound 123115] | – | – | −25.7% | 0.96 Ratio |
